The test system of one data set is SH-SY-5Y cells. Briefly: cells. Format: cell-based. To be noted: for protection against Aβ toxicity: 10 μM, pretreatment 24 h; for protection against Aβ toxicity / length of cytoprotection against Aβ toxicity: 20 μM Aβ (1-42); for inhibition at 1000 µM: Homo sapiens, SH-SY5Y, SH-SY-5Y, compound 1 mM 24 h; for length of cytoprotection against Aβ toxicity: pretreatment of SH-SY-5Y cells. As to the method: (§1) Cytotoxicity Studies: Protection against β-amyloid 1-42 cytotoxicity in SH-SY-5Y cells was measured by standard MTT assays. SH-SY-5Y cells were seeded in 96-well plates at the density of 30,000 cells/well. After overnight incubation, the cells were exposed to GSH or Ψ-GSH at a concentration of 1 mM for 24 h at 37° C. After 24 h of incubation, the drug-containing medium was replaced with media containing 20 μM β-amyloid 1-42 peptide and the incubation was allowed to continue for additional 24 hours after the addition of the drugs. At the end of the incubation, 20 μL of MTT stock solution (5 mg/mL) was added to each well and incubated for 3 h at 37° C. The MTT reaction medium was discarded and the purple-blue MTT formazan crystals were dissolved by the addition of 100 μL of 0.1 N HCl in isopropanol. The optical density (OD), a reflection mitochondrial function of the viable cells, was read directly with a microplate reader (BioTek SynergyHT, VT, USA) at 580 nm and a reference wavelength of 680 nm. Concentration response graphs were generated for each drug using GraphPad Prism software (GraphPad Software, Inc., San Diego, Calif., USA). Results are expressed as mean percent inhibition of β-amyloid toxicity with the standard error of the mean. In another set of experiments, cells were preincubated with a glyoxalase I inhibitor, S-(p-bromobenzylglutathione) (1 mM) for 24 hours before addition of βamyloid1-42 peptide (20 μM).
as §1, with “Protection” for “Cytotoxicity Studies: Protection”, “against β-amyloid^1-42” for “against β-amyloid 1-42”, “cells/well. […]” for “cells/well. After overnight incubation, the cells were exposed to GSH or Ψ-GSH at a concentration of 1 mM for 24 h at 37° C.”, “μM β-amyloid^1-42” for “μM β-amyloid 1-42”, “20 μl,” for “20 μL”, “mean.” for “mean. In another set of experiments, cells were preincubated with a glyoxalase I inhibitor, S-(p-bromobenzylglutathione) (1 mM) for 24 hours before addition of βamyloid1-42 peptide (20 μM).”

The target in the next data set is T1, yeast glyoxalase I (Saccharomyces cerevisiae, UniProt P50107).
T1 construct: purchased Sigma
T1 sequence (P50107 1-326): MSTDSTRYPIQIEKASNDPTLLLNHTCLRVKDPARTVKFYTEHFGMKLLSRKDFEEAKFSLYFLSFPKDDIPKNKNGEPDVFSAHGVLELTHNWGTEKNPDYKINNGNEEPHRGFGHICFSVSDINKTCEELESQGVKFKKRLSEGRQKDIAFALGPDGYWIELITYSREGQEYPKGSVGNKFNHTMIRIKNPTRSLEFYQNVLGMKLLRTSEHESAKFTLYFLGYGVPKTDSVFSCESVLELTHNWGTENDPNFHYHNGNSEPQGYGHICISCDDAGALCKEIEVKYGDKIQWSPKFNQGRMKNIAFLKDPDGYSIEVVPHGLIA
Briefly: Glyoxalase I enzyme kinetics assay. Format: biochemical. The settings on record: yeast Glx-I, MG, 30° C., phosphate buffer pH 6.6. As to the method:
Glyoxalase I Enzyme Kinetics Assay. The glutathione analog, Ψ-GSH and asparthione were examined for their ability to act as substrates for the yeast glyoxalase I mediated […] of MG. The commercial 40% methylglyoxal solution was distilled to remove polymerization products. Enzyme assays were performed (30° C., 0.05 M phosphate buffer (pH 6.6)) using a thermostated Beckman DU® 7400 spectrophotometer. Fresh solutions of GSH, Ψ-GSH and asparthione were prepared on the day of the assays with distilled, deionized water. In each assay, the cell contained a total volume of 3.0 mL which was no more than 6.0 mM with respect to methylglyoxal and 1.3 mM with respect to GSH or its analogs. […] Data were analyzed utilizing an Enzyme kinetics module of Sigmaplot 9.0 from Systat Software Inc.

Data set [1] in a line: Pharmacokinetic evaluation in plasma. It counts as in vivo, C57BL/6 mice. To be noted: single i.p. dose 500 mg/kg; for CL_F Clearance / absorption half-life / half-life / AUC / Cmax / Tmax: C57BL/6 mice, plasma; for absorption half-life / half-life / AUC / Cmax / Tmax: female, ip; for absorption half-life / half-life: C57BL/6, mouse, 500 mg/kg; for absorption half-life: read-out: K01 absorption half life (converted); for half-life: read-out: K10 elimination half life (converted); for AUC / Cmax / Tmax: mouse. As to the method: Pharmacokinetic Evaluation of Ψ-GSH. Eight weeks old C57BL/6 female mice (n=4 animals/time point) were given 500 mg/kg of GSH or Ψ-GSH in saline intraperitoneally. Blood samples were collected at […], 1, 2, 4, 8, 24 hr after the drug administration through retro-orbital bleeding into heparin-coated tubes. Blood was immediately centrifuged at 5000×g for 10 min at 4° C. The top plasma layer was transferred into a new tube and mixed with an equal volume of 5% sulfosalicylic acid in […] potassium phosphate buffer containing 1 mM EDTA disodium salt (pH 7.2). This was followed by centrifugation of samples at 8000×g for 10 min at 4° C. and analysis of thiol concentration. The derivatization reaction was realized utilizing 130 μL of the supernatant, 500 μL of Tris-HCl buffer 0.5 M, pH 8.9 and 350 μL of DTNB 10 mM in of K2HPO4 (0.5 M, pH 8.0). After 5 min in an ice bath, the reaction mixture was acidified by addition of 100 μL H3PO4 7 M and centrifuged at 3000×g for 10 min. Then, derivatized GSH or Ψ-GSH was filtered through a 0.22 μm membrane and 20 μL was injected in HPLC at 330 nm. HPLC analysis was carried out on a Beckman Coulter Gold HPLC system, controlled by a system controller (32 Karat workstation with PC). The HPLC conditions employed a Varian Microsorb column (C18, 5 μm, 4.6×250 mm) using solvent A [water containing 0.9% v/v formic acid] and solvent B [acetonitrile] with 1 mL/min flow rate and detected at 330 nm. Solvent B was increased from 0 to 30% in 9 min, then to 80% in 7 min, and held at 80% for an additional 4 min. The retention time for derivatized Ψ-GSH was 11.8 minutes.

Setting [2] is: then 20 μM Aβ1-42 24 h, read-out: % Inhibition of Cell Growth with Aβ1-42.
[3] abbreviates: without Aβ1-42, read-out: % Inhibition of Cell Growth without Aβ1-42.

Read-outs that look alike come from different tables or passages of the source.

As a reminder, the inhibition is how much of the control response was suppressed. As a reminder, the half-life is how long it takes for the measured level to halve. In general, AUC refers to the area under the concentration-time curve, a measure of exposure. Read a low AUC as low exposure. One may read the Cmax as the maximum level reached in the sampled fluid or tissue. The Tmax is the time at which the peak concentration occurs. For `N[C@@H](CNC(=O)N[C@@H](CS)C(=O)NCC(=O)O)C(=O)O` [Ψ-GSH, γ-Gla-Cys-Gly-OH], in the data set with SH-SY-5Y cells, the “protection against Aβ toxicity” value is recorded as “fully protected the cells” and the “length of cytoprotection against Aβ toxicity” value is listed as “five days”. Also, in the data set with SH-SY-5Y cells (setting [2]), the inhibition at 1000 µM was 4%. Moreover, in the data set with SH-SY-5Y cells (setting [3]), the inhibition at 1000 µM was found to be 0%. On yeast glyoxalase I, the “slope for initial velocity vs. substrate concentration” value stood at 0.0498±0.0040. Also, in data set [1], the “CL_F Clearance” value came to 31.15 mL/min/kg, the absorption half-life was 10.3 min, the half-life was 73.6 min and the area under the curve (AUC) was 267 µg·h/mL. For the same compound, in data set [1], the Cmax was found to be 110 µg/mL, the time of peak concentration (Tmax) amounted to 34 min, the “AUC relative to GSH” value is reported as 5.3 fold and the “Cmax relative to GSH” value is given as 2.5 fold. The “Tmax relative to GSH” value in data set [1] is on record as 3 fold.

For `N[C@@H](CCC(=O)N[C@@H](CS)C(=O)NCC(=O)O)C(=O)O` [GSH, Glutathione], in the data set with SH-SY-5Y cells, the “protection against Aβ toxicity” value is given as “fully protected the cells” and the “length of cytoprotection against Aβ toxicity” value is given as “significant only until day 3”. Besides, the inhibition at 1000 µM in the data set with SH-SY-5Y cells (setting [2]) came to 12%. Further, the inhibition at 1000 µM in the data set on SH-SY-5Y cells (setting [3]) came out at 0%. The “slope for initial velocity vs. substrate concentration” value at yeast glyoxalase I is on record as 0.1954±0.0216. Further, in data set [1], the “CL_F Clearance” value turned out to be 165.9 mL/min/kg, the absorption half-life was 7.62 min, the half-life is 29.7 min and the exposure (AUC) was 50.2 µg·h/mL. Also, in data set [1], the concentration peaked (Cmax) at 43.9 µg/mL and the time of peak concentration (Tmax) turned out to be 20.2 min.

The record behind these values is patent US9394338B2, “Glutathione analogs and uses thereof” (REGENTS OF THE UNIVERSITY OF MINNESOTA, priority 2011, dated 2016).
